# Data taken from patent EP4678638A1, “NEW E3 UBIQUITIN LIGASE LIGAND, PROTEIN DEGRADATION AGENT AND USE THEREOF” (priority 2023, dated 2024).
# Target: T1, ALK (Homo sapiens, UniProt Q96SW2+Q9HC35+Q9UM73)
# T1 construct: evaluate the effects of the compounds of the present disclosure on the expression of target proteins in cells; endogenous in cells; host or cells: H2228
# Test: Western blot degradation of ALK (H2228 Cell)
# Assay type: cell-based
# Settings: Table D5
# Protocol: Conventional Western blot assay was performed to evaluate the effects of the compounds of the present disclosure on the expression of target proteins in cells.
# (1) Cell Seeding and Protein Harvesting: The selected cells were processed according to the cell seeding procedure and protein harvesting procedure in Table III-2. Table III-2 Cell Seeding and Protein Harvesting Procedures
# (2) To the collected supernatant, 5X SDS sample loading buffer was added, followed by denaturation at 95°C for 5 minutes. The denatured samples were then separated by SDS-PAGE electrophoresis on a polyacrylamide gel. Proteins were transferred to a nitrocellulose membrane (0.45 µm NC membrane), blocked with blocking buffer at room temperature for 1 hour, and subjected to antibody incubation and development procedures according to the antibody manufacturer's instructions (Cell Signaling Technology).
# Half-Maximal Degradation Concentration value (the drug concentration required for degrading proteins by 50%, abbreviated as DC50) reads method: comparing the grayscale values of Western blot bands from drug-treated samples with those from blank DMSO-treated controls, and identifying the drug concentration range at which the grayscale value is half that of the DMSO-treated control bands.
# DC50 values can be calculated using ImageJ software to measure grayscale values of Western blot bands from drug-treated samples. The concentration-response curve is fitted to estimate the drug concentration corresponding to half the grayscale value.
# Target protein remaining (%) refers to the percentage of target protein remaining in hPBMC cells after treatment with protein degrader compounds.
# Calculation method for target protein remaining (%): Use ImageJ software to measure grayscale values of Western blot bands from drug (protein degrader)-treated samples. The grayscale value of drug-treated bands is divided by that of internal control protein bands, and the resulting quotient is normalized to obtain the relative percentage of remaining target protein after protein degrader treatment.
# Target protein degradation rate (%) = 100% - target protein remaining (%).
# T1 sequence (Q9HC35+Q9UM73 fused): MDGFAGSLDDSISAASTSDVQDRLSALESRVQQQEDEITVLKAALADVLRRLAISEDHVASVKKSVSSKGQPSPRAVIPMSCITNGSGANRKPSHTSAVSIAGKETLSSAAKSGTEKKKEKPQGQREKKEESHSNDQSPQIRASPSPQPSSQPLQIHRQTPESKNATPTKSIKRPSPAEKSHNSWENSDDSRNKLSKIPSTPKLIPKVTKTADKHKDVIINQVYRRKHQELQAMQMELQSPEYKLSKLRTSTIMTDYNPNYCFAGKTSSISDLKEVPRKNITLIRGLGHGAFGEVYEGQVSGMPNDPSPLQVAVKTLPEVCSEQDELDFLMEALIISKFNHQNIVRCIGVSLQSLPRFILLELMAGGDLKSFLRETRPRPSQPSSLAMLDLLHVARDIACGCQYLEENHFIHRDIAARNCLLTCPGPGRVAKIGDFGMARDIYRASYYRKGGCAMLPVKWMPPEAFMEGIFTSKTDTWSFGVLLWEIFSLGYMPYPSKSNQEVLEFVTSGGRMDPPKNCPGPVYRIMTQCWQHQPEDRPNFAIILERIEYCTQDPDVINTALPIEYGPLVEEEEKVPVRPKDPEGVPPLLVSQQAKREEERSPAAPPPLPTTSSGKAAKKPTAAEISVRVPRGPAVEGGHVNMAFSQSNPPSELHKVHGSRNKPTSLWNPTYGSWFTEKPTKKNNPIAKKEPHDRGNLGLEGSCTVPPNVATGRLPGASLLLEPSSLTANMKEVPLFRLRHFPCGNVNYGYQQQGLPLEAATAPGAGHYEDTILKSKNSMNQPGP
# T1 sequence (Q96SW2 whole entry): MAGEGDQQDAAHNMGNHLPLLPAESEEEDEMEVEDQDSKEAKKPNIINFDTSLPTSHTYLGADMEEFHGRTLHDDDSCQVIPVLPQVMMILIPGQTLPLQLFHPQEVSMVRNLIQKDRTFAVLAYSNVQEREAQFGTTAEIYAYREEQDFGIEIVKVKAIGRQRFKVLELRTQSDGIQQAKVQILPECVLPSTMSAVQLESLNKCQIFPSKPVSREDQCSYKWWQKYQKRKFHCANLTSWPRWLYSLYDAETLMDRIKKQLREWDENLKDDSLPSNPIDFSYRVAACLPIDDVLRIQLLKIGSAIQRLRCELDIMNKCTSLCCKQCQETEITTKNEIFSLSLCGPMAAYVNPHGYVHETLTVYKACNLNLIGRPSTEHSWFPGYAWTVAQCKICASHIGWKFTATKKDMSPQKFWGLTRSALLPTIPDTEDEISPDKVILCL
# T1 sequence (Q16531 whole entry partner): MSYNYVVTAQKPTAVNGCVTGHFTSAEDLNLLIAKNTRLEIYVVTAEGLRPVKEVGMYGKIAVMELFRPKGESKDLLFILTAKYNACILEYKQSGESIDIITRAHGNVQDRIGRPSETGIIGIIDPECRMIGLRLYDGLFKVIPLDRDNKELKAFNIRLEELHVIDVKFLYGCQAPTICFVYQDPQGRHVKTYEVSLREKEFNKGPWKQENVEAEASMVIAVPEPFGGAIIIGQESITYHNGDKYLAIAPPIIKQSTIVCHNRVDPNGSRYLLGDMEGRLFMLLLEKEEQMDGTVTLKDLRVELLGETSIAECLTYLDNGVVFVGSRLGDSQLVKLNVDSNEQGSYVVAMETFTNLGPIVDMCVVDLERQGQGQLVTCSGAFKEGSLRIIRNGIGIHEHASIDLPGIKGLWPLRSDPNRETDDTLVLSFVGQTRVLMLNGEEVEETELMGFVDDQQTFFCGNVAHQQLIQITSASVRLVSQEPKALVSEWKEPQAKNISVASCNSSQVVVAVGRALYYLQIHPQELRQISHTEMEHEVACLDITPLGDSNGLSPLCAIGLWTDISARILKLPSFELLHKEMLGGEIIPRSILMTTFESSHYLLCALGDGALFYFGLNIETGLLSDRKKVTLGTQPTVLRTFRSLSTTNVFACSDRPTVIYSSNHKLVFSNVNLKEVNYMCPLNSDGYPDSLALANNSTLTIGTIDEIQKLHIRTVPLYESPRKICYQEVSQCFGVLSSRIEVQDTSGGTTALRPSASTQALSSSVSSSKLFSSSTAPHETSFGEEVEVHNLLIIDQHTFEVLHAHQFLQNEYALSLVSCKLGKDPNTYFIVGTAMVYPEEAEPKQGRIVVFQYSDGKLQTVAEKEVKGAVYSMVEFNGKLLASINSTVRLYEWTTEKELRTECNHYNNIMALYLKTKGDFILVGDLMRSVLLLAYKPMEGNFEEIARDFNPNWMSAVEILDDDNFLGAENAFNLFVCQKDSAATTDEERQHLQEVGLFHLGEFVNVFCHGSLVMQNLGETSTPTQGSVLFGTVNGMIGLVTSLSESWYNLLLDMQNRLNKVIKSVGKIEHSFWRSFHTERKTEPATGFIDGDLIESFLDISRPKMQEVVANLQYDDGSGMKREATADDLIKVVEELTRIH
row,Compound,Degradation of substrate protein ALK (substrate protein remaining %)
1,"COc1cc(N2CCN(Cc3cc(N4CCC(=O)NC4=O)cnc3F)CC2)ccc1Nc1ncc(Cl)c(Nc2ccccc2P(C)(C)=O)n1 [GT-07748, 1-(5-((4-(4-((5-chloro-4-((2-(dimethylphosphoryl)phenyl)amino)pyrimidin-2-yl)amino)-3-methoxyphenyl)piperazin-1-yl)methyl)-6-fluoropyridin-3-yl)dihydropyrimidine-2,4(1H,3H)-dione]",A (A is defined as 0% ≤ substrate protein remaining % ≤ 80%)
2,"COc1cc(N2CCN(Cc3cnc(N4CCC(=O)NC4=O)cn3)CC2)ccc1Nc1ncc(Cl)c(Nc2ccccc2P(C)(C)=O)n1 [GT-07749, 1-(5-((4-(4-((5-chloro-4-((2-(dimethylphosphoryl)phenyl)amino)pyrimidin-2-yl)amino)-3-methoxyphenyl)piperazin-1-yl)methyl)pyrazin-2-yl)dihydropyrimidine-2,4(1H,3H)-dione]",A (A is defined as 0% ≤ substrate protein remaining % ≤ 80%)
3,"COc1cc(N2CCC(N(C)Cc3cc(N4CCC(=O)NC4=O)cnc3F)CC2)ccc1Nc1ncc(Cl)c(Nc2ccccc2P(C)(C)=O)n1 [GT-07750, 1-(5-(((1-(4-((5-chloro-4-((2-(dimethylphosphoryl)phenyl)amino)pyrimidin-2-yl)amino)-3-methoxyphenyl)piperidin-4-yl)(methyl)amino)methyl)-6-fluoropyridin-3-yl)dihydropyrimidine-2,4(1H,3H)-dione]",A (A is defined as 0% ≤ substrate protein remaining % ≤ 80%)
4,"COc1cc(N2CCC(N(C)Cc3cnc(N4CCC(=O)NC4=O)cn3)CC2)ccc1Nc1ncc(Cl)c(Nc2ccccc2P(C)(C)=O)n1 [GT-07751, 1-(5-(((1-(4-((5-chloro-4-((2-(dimethylphosphoryl)phenyl)amino)pyrimidin-2-yl)amino)-3-methoxyphenyl)piperidin-4-yl)(methyl)amino)methyl)pyrazin-2-yl)dihydropyrimidine-2,4(1H,3H)-dione]",A (A is defined as 0% ≤ substrate protein remaining % ≤ 80%)
5,"CCc1cc2c(cc1N1CCC(N3CCN(Cc4cc(N5CCC(=O)NC5=O)cnc4F)CC3)CC1)C(C)(C)c1[nH]c3cc(C#N)ccc3c1C2=O [GT-07755, 8-(4-(4-((5-(2,4-dioxotetrahydropyrimidin-1(2H)-yl)-2-fluoropyridin-3-yl)methyl)piperazin-1-yl)piperidin-1-yl)-9-ethyl-6,6-dimethyl-11-oxo-6,11-dihydro-5H-benzo[b]carbazole-3-carbonitrile]",A (A is defined as 0% ≤ substrate protein remaining % ≤ 80%)
6,"CCc1cc2c(cc1N1CCC(N3CCN(Cc4cnc(N5CCC(=O)NC5=O)cn4)CC3)CC1)C(C)(C)c1[nH]c3cc(C#N)ccc3c1C2=O [GT-07756, 8-(4-(4-((5-(2,4-dioxotetrahydropyrimidin-1(2H)-yl)pyrazin-2-yl)methyl)piperazin-1-yl)piperidin-1-yl)-9-ethyl-6,6-dimethyl-11-oxo-6,11-dihydro-5H-benzo[b]carbazole-3-carbonitrile]",A (A is defined as 0% ≤ substrate protein remaining % ≤ 80%)
7,"Cc1cc(Nc2ncc(Cl)c(Nc3ccccc3S(=O)(=O)C(C)C)n2)c(OC(C)C)cc1C1CCN(Cc2cnc(N3CCC(=O)NC3=O)cn2)CC1 [GT-07758, 1-(5-((4-(4-((5-chloro-4-((2-(isopropylsulfonyl)phenyl)amino)pyrimidin-2-yl)amino)-5-isopropoxy-2-methylphenyl)piperidin-1-yl)methyl)pyrazin-2-yl)dihydropyrimidine-2,4(1H,3H)-dione]",A (A is defined as 0% ≤ substrate protein remaining % ≤ 80%)
8,"CCc1cc2c(cc1N1CCN(Cc3cc(N4CCC(=O)NC4=O)ncc3F)CC1)C(C)(C)c1[nH]c3cc(C#N)ccc3c1C2=O [GT-07833, 8-(4-((2-(2,4-dioxotetrahydropyrimidin-1(2H)-yl)-5-fluoropyridin-4-yl)methyl)piperazin-1-yl)-9-ethyl-6,6-dimethyl-11-oxo-6,11-dihydro-5H-benzo[b]carbazole-3-carbonitrile]",A (A is defined as 0% ≤ substrate protein remaining % ≤ 80%)
9,"CCc1cc2c(cc1N1CCN(Cc3ccnc(N4CCC(=O)NC4=O)c3)CC1)C(C)(C)c1[nH]c3cc(C#N)ccc3c1C2=O [GT-07834, 8-(4-((2-(2,4-dioxotetrahydropyrimidin-1(2H)-yl)pyridin-4-yl)methyl)piperazin-1-yl)-9-ethyl-6,6-dimethyl-11-oxo-6,11-dihydro-5H-benzo[b]carbazole-3-carbonitrile]",A (A is defined as 0% ≤ substrate protein remaining % ≤ 80%)
10,"CCc1cc2c(cc1N1CCN(Cc3cncc(N4CCC(=O)NC4=O)c3)CC1)C(C)(C)c1[nH]c3cc(C#N)ccc3c1C2=O [GT-07835, 8-(4-((5-(2,4-dioxotetrahydropyrimidin-1(2H)-yl)pyridin-3-yl)methyl)piperazin-1-yl)-9-ethyl-6,6-dimethyl-11-oxo-6,11-dihydro-5H-benzo[b]carbazole-3-carbonitrile]",A (A is defined as 0% ≤ substrate protein remaining % ≤ 80%)
11,"CCc1cc2c(cc1N1CCN(Cc3cc(C4CCC(=O)NC4=O)cnc3F)CC1)C(C)(C)c1[nH]c3cc(C#N)ccc3c1C2=O (stereo not drawn) [GT-07836, 8-(4-((5-(2,6-dioxopiperidin-3-yl)-2-fluoropyridin-3-yl)methyl)piperazin-1-yl)-9-ethyl-6,6-dimethyl-11-oxo-6,11-dihydro-5H-benzo[b]carbazole-3-carbonitrile]",A (A is defined as 0% ≤ substrate protein remaining % ≤ 80%)
12,"CCc1cc2c(cc1N1CCC(N3CCN(Cc4ncc(N5CCC(=O)NC5=O)cc4F)CC3)CC1)C(C)(C)c1[nH]c3cc(C#N)ccc3c1C2=O [GT-07924, 8-(4-(4-((5-(2,4-dioxotetrahydropyrimidin-1(2H)-yl)-3-fluoropyridin-2-yl)methyl)piperazin-1-yl)piperidin-1-yl)-9-ethyl-6,6-dimethyl-11-oxo-6,11-dihydro-5H-benzo[b]carbazole-3-carbonitrile]",A (A is defined as 0% ≤ substrate protein remaining % ≤ 80%)

# Target: T2, IRAK4 (Homo sapiens, UniProt Q9NWZ3)
# T2 construct: evaluate the effects of the compounds of the present disclosure on the expression of target proteins in cells; endogenous in cells; host or cells: hPBMC
# T2 sequence (Q9NWZ3 1-460): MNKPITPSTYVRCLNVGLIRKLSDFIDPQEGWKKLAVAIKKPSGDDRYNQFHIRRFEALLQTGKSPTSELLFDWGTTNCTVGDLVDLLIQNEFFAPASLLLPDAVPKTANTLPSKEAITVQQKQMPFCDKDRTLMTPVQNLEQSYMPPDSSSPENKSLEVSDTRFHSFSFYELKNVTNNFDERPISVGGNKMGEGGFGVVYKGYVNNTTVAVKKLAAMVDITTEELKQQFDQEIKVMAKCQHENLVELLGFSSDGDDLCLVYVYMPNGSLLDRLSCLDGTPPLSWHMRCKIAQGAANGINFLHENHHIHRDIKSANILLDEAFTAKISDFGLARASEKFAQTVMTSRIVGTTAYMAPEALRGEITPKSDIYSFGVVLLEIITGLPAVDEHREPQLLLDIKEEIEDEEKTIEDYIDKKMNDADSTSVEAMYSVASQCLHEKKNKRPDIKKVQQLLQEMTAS
# Test: Western blot degradation of IRAK4 (hPBMC)
# Assay type: cell-based
# Settings: Table D1
# In short: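 Degradation is assessed by immunoblotting lysates of treated cells. Target bands are quantified by grayscale and normalised to an internal control, so degradation rate equals 100% minus % remaining.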
row,Compound,Degradation of substrate protein IRAK4 (substrate protein remaining %)
1,"O=C1CCN(c2cccc(CN3CCN(Cc4ccc5c(c4)nc(NC(=O)c4cccc(C(F)(F)F)c4)n5[C@H]4CC[C@@H](CO)CC4)CC3)c2)C(=O)N1 [GT-04977, N-(5-((4-(3-(2,4-dioxotetrahydropyrimidin-1(2H)-yl)benzyl)piperazin-1-yl)methyl)-1-((1s,4s)-4-(hydroxymethyl)cyclohexyl) -1H-benzo[d]imidazol-2-yl)-3-(trifluoromethyl)benzamide]",A (A is defined as 0% ≤ substrate protein remaining % ≤ 80%)

# Tested on: SR
# Test: CCK-8 proliferation, SR
# Assay type: cell-based, Human
# Settings: Homo sapiens; Table B10, compounds designed based on the IRAK4 inhibitors; SR cells; read-out: Inhibitory activity (IC50, nM) on tumor cell proliferation, SR
# In short: (§1)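 CCK-8 viability readout; IC50 from growth-inhibition curve fitting. Cells plated, dosed 24h later with a 10-point series, top 10µM, 5-fold steps. Culture at 37°C, 5% CO2.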
row,Compound,IC50 [nM]
1,"O=C1CCN(c2cccc(CN3CCN(Cc4ccc5c(c4)nc(NC(=O)c4cccc(C(F)(F)F)c4)n5[C@H]4CC[C@@H](CO)CC4)CC3)c2)C(=O)N1 [GT-04977, N-(5-((4-(3-(2,4-dioxotetrahydropyrimidin-1(2H)-yl)benzyl)piperazin-1-yl)methyl)-1-((1s,4s)-4-(hydroxymethyl)cyclohexyl) -1H-benzo[d]imidazol-2-yl)-3-(trifluoromethyl)benzamide]",100 to 500

# Tested on: MM.1S
# Test: CCK-8 proliferation, MM.1S
# Assay type: cell-based
# Settings: Homo sapiens, MM1.S; Table B10, compounds designed based on the IRAK4 inhibitors; MM.1S cells; read-out: Inhibitory activity (IC50, nM) on tumor cell proliferation, MM.1S
# In short: as §1
row,Compound,IC50 [nM]
1,"O=C1CCN(c2cccc(CN3CCN(Cc4ccc5c(c4)nc(NC(=O)c4cccc(C(F)(F)F)c4)n5[C@H]4CC[C@@H](CO)CC4)CC3)c2)C(=O)N1 [GT-04977, N-(5-((4-(3-(2,4-dioxotetrahydropyrimidin-1(2H)-yl)benzyl)piperazin-1-yl)methyl)-1-((1s,4s)-4-(hydroxymethyl)cyclohexyl) -1H-benzo[d]imidazol-2-yl)-3-(trifluoromethyl)benzamide]",100 to 500
